Test results: patent publication US20140371171A1, “Aqueous Lock Composition Comprising Ethanol and a Polysaccharide Anticoagulant” (UNIVERSITE D'AUVERGNE CLERMONT I, priority 2012, published 2014)

How the values were obtained:
Assay type in all cases: physicochemical
[1] = Ethanol concentration that does not cause the lock composition to precipitate, varying the heparin content; conditions: observed after 48 hours
Description: The lock compositions tested were as follows: • composition comprising a mixture of the nadroparin calcium and ethanol • composition comprising a mixture of the tinzaparin sodium and ethanol, • composition comprising a mixture of the dalteparin sodium and ethanol, • composition comprising a mixture of the enoxaparin sodium and ethanol. […] The compositions were tested at ambient temperature and at 37° C. and the results were observed after 48 hours.

[2] = Visual observation of precipitation in ethanol/enoxaparin sodium mixtures; conditions: enoxaparin sodium 400 IU/mL
Description: Various mixtures of ethanol/enoxaparin sodium were prepared in 5 mL glass hemolysis tubes combining either: • a) a fixed concentration of enoxaparin sodium with 400 IU/mL (corresponding to the dose used in an antithrombotic preventive lock) in a range of increasing concentrations of ethanol (30%, 40%, 45%, 50%, 60% and 70% by volume (v/v)), the dilutions of ethanol having been made in physiological serum solution (NaCl in a concentration of 0.9 g/100 ml). • b) increasing concentrations of enoxaparin sodium (50, 100, 400, 500 and 1,000 IU/mL) in an ethanol solution of fixed concentration (40, 45 or 50% v/v). The visual observation of different ethanol/enoxaparin mixtures was carried out by way of an assessment of the presence (or absence) of precipitation at the time of effecting the contacting of the two solutions; the observed phenomena corresponding, either to the absence (level 0 noted −), or the presence of a precipitation. The extent of the precipitation was assessed, either based on the appearance of a cloudiness, or on the formation of a deposit in the form of droplets and the levels were evaluated by the scores: +, ++, +++. […] The observation was monitored over time, that is after 1 minute, 1 hour, 24 hours, 48 hours and 72 hours, of contact, and this was done at two temperatures, 20° C. and 37° C.

[3] = Assay of enoxaparin by HPLC-ELSD in supernatant; conditions: enoxaparin sodium 400 IU/mL; ethanol 70% v/v
Description: The assaying of enoxaparin was performed by a method of coupling high-performance liquid chromatography (HPLC) with an evaporative light scattering detector (ELSD) method. In order to be within the zone of linearity of the detector response, the samples were diluted to one tenth in the physiological serum solution. The analysis was carried out in the mixtures combining enoxaparin sodium 400 IU/mL with increasing concentrations of ethanol (30 to 70% (V/V)), in comparison with a calibration range of the enoxaparin composition (marketed under the trade name Lovenox®) prepared in the physiological serum solution at the following concentrations: 6 IU/mL, 12 IU/mL, 40 IU/mL, 80 IU/mL, 120 IU/mL.
For the samples presenting a cloudiness effect, a preliminary centrifugation at 1,600 g for 5 minutes was carried out and only the supernatant was subsequently analysed.
The operating conditions for the chromatographic separation were as follows: • analytical column measuring 150 mm in length and 4.6 mm in diameter, filled with a stationary phase of C18 5 μm. • separation of components in isocratic mode making use of a mixture of methanol/water, 50/50 (V/V) at a flow rate of 0.3 mL/min. • detection using an evaporative light scattering detector (ELSD): evaporation temperature of 40° C., gain of the detector=3 and pressure of nitrogen (nebulizer gas)=3.5 bar.

dalteparin sodium
Ethanol content (% v/v) at 37° C. that does not cause precipitation ([1]; heparin content 10 IU/mL): 47.8 % v/v | Ethanol content (% v/v) at ambient temperature that does not cause precipitation ([1]; heparin content 10 IU/mL): 44.6 % v/v | Ethanol content (% v/v) at 37° C. that does not cause precipitation ([1]; heparin content 500 IU/mL): 41.9 % v/v | Ethanol content (% v/v) at ambient temperature that does not cause precipitation ([1]; heparin content 500 IU/mL): 35.7 % v/v | Ethanol content (% v/v) at 37° C. that does not cause precipitation ([1]; heparin content 1,000 IU/mL): 35.9 % v/v | Ethanol content (% v/v) at ambient temperature that does not cause precipitation ([1]; heparin content 1,000 IU/mL): 26.7 % v/v

enoxaparin sodium
visual appearance of the mixture (cloudiness) ([2]; ethanol 60 and 70% v/v): the cloudiness increases progressively as the ethanol content increases | visual appearance of the mixture (precipitation) ([2]; ethanol less than or equal to 40% v/v, up to 72 hours at 20° C. or 37° C.): remains clear and colourless | enoxaparin content levels found in the supernatant after centrifugation [3]: not detectable | Ethanol content (% v/v) at 37° C. that does not cause precipitation ([1]; heparin content 10 IU/mL): 48.2 % v/v | Ethanol content (% v/v) at ambient temperature that does not cause precipitation ([1]; heparin content 10 IU/mL): 47.6 % v/v | Ethanol content (% v/v) at 37° C. that does not cause precipitation ([1]; heparin content 500 IU/mL): 45.8 % v/v | Ethanol content (% v/v) at ambient temperature that does not cause precipitation ([1]; heparin content 500 IU/mL): 40.7 % v/v | Ethanol content (% v/v) at 37° C. that does not cause precipitation ([1]; heparin content 1,000 IU/mL): 43.3 % v/v | Ethanol content (% v/v) at ambient temperature that does not cause precipitation ([1]; heparin content 1,000 IU/mL): 33.7 % v/v

nadroparin calcium
Ethanol content (% v/v) at 37° C. that does not cause precipitation ([1]; heparin content 10 IU/mL): 44.6 % v/v | Ethanol content (% v/v) at ambient temperature that does not cause precipitation ([1]; heparin content 10 IU/mL): 43.7 % v/v | Ethanol content (% v/v) at 37° C. that does not cause precipitation ([1]; heparin content 500 IU/mL): 41.7 % v/v | Ethanol content (% v/v) at ambient temperature that does not cause precipitation ([1]; heparin content 500 IU/mL): 41.7 % v/v | Ethanol content (% v/v) at 37° C. that does not cause precipitation ([1]; heparin content 1,000 IU/mL): 38.7 % v/v | Ethanol content (% v/v) at ambient temperature that does not cause precipitation ([1]; heparin content 1,000 IU/mL): 39.7 % v/v

tinzaparin sodium
Ethanol content (% v/v) at 37° C. that does not cause precipitation ([1]; heparin content 10 IU/mL): 44.0 % v/v | Ethanol content (% v/v) at ambient temperature that does not cause precipitation ([1]; heparin content 10 IU/mL): 42.1 % v/v | Ethanol content (% v/v) at 37° C. that does not cause precipitation ([1]; heparin content 500 IU/mL): 41.0 % v/v | Ethanol content (% v/v) at ambient temperature that does not cause precipitation ([1]; heparin content 500 IU/mL): 34.3 % v/v | Ethanol content (% v/v) at 37° C. that does not cause precipitation ([1]; heparin content 1,000 IU/mL): 38.0 % v/v | Ethanol content (% v/v) at ambient temperature that does not cause precipitation ([1]; heparin content 1,000 IU/mL): 26.3 % v/v
